Marks after values point to notes of the source that are not given here.
Key:
[1] = system: AChE activity in cortex tissue and blood; conditions: model rats, intragastric 50 μg/kg, 7 days; mean ± SD
Protocol: Animal grouping, modeling and administration: 57 female Wistar rats (15 month old, 300-450 g, from animal center of Qingdao Institute for Drug Control, fed under normal conditions and natural light with unlimited drink and food) were randomly separated into 6 groups. Rats in normal control group were intraperitoneal injected with physiological saline for 6 weeks and injected physiological saline into the meynert nucleus basalis. Rats in modeling control group were injected intraperitoneally with D-galactose (48 mg/kg/d) for 6 weeks and injected with ibotenic acid into the meynert nucleus basalis. […] The rats in the normal and modeling control groups were intragastrically administrated with physiological saline for consecutive 7 days. 1 hour after the last administration, the learning ability of all the rats; was evaluated. Then, the rats were anesthetized with Pentobarbital. 5 ml blood was collected from abdominal aorta. Immediately the cortex tissue was collected and homogenated with physiological saline into 10% (WN). The AChE activity in cortex tissue and blood was measured according to the reagent kit instructions. • 3. […] The shocked times (mistakes) within 5 minutes were recorded as a reference for the learning ability of the rats. […] The latency time for the first jump was recorded as a reference for the memory ability. The shocked times (mistakes) within 5 minutes were also recorded. […]

rats = test: Alzheimer's disease model rats, learning and memorizing ability in jumping tests; type: in vivo; conditions: intragastric 50 μg/kg, 7 days, mean ± SD
Protocol: Animal grouping, modeling and administration: 57 female Wistar rats (15 month old, 300-450 g, from animal center of Qingdao Institute for Drug Control, fed under normal conditions and natural light with unlimited drink and food) were randomly separated into 6 groups. Rats in normal control group were intraperitoneal injected with physiological saline for 6 weeks and injected physiological saline into the meynert nucleus basalis. Rats in modeling control group were injected intraperitoneally with D-galactose (48 mg/kg/d) for 6 weeks and injected with ibotenic acid into the meynert nucleus basalis. […] The rats in the normal and modeling control groups were intragastrically administrated with physiological saline for consecutive 7 days. 1 hour after the last administration, the learning ability of all the rats; was evaluated. Then, the rats were anesthetized with Pentobarbital. 5 ml blood was collected from abdominal aorta. Immediately the cortex tissue was collected and homogenated with physiological saline into 10% (WN). The AChE activity in cortex tissue and blood was measured according to the reagent kit instructions. • 3. Measurement: testing the memory ability of rats: the rats were placed in an electric box with an escaping platform for 3 minutes to get used to the new environments. The box was then connected to 50V AC. Upon being shocked, the rats can escape the electricity by jumping onto the platform. The shocked times (mistakes) within 5 minutes were recorded as a reference for the learning ability of the rats. After 24 hours, the rats were placed directly on the platform. The latency time for the first jump was recorded as a reference for the memory ability. The shocked times (mistakes) within 5 minutes were also recorded. The latency time of over 5 minutes was considered as 5 minutes.
T testing method was used to evaluate the difference within different groups, and the difference was statistically significant when P<0.05. • 4. […] P represents statistic difference. *P<0.05 means statistically obvious difference, **P<0.01 statistically significant difference.

`C/C=C1\[C@H]2C=C(C)C[C@]1(N)c1ccc(=O)[nH]c1C2` [Huperzine A, huperzine A] was tested, and the “Blood TchE” value [1] was 48 ± 35* mmol/L, the “Cortex TchE” value [1] was 2.0 ± 0.6* μmol/g and the Latency (rats; after 24 hours) was 135 ± 55* s. The “Mistakes within 5 min” value (rats) was 4 ± 2.3* and the “Mistakes within 5 min after 24 hours” value (rats) was 2 ± 1.6*.

— patent publication US8785471B2, “Pharmaceutical composition containing ferulic acid and matrine compounds, the preparation and the use thereof” (Qingdao Qiyuan Bio-Technologies Co., Ltd., priority 2008, dated 2014)
